From patent US6022893A, “Hydroxamic acid derivatives” (ONO Pharmaceutical Co., Ltd., priority 1995, dated 2000)
pIC50: −log10 of the molar value.

Experiments:
[1] = target: T1, gelatinase A (Homo sapiens, UniProt P08253); experiment: Inhibitory activity against gelatinase A (FITC-labeled gelatin substrate); assay type: biochemical; conditions: incubated 2 hours at 37° C., APMA-activated progelatinase A from human normal skin dermal fibroblasts
T1 construct: endogenous in cells; host or cells: human normal skin dermal fibroblasts (HNDF); progelatinase A purified from them
T1 sequence (P08253 110-660): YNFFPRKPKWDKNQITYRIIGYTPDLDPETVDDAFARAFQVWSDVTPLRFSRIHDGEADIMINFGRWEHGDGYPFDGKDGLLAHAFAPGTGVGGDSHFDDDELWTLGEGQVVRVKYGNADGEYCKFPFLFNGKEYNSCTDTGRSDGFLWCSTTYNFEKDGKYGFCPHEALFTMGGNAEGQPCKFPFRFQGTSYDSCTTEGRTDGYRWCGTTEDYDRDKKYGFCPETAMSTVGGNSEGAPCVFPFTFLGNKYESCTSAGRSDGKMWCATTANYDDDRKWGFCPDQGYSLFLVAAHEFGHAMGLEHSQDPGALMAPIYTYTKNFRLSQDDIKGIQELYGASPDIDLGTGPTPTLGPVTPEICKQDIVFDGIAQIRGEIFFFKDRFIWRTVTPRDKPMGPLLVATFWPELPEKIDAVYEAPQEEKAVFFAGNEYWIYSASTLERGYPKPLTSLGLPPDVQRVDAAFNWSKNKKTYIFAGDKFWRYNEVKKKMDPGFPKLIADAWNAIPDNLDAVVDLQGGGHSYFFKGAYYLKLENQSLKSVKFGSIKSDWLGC
Procedure: (§1) The potency of inhibitory activity against each matrix metalloproteinase is confirmed as below. The IC50 value for inhibition of gelatinase A activity is determined as follows.
(§2) (1) Inhibitory activity against gelatinase A
(§3) Progelatinase A (7 μl; in assay buffer (90 μl )) was purified from human normal skin dermal fibroblasts (HNDF). It was activated by the addition of 10 mM of p-aminophenylmercuric acetate (APMA) (10 μl) for 1 hour at 37° C.
The solution of activated gelatinase A (7 μl tube, 98μl) was mixed with various concentrations of the test compound or dimethylsulfoxide (2 μl) and gelatin (100 μl) labeled with 0.05% fluorescein isothiocyanate (FITC) and incubated for 2 hours at 37° C. The reaction was terminated by the addition of 0.1 M Tris-HCI (pH9.5) containing 94.7% ethanol (750 μl). The mixture was stirred and then allowed to stand for 30 minutes at 0° C. The mixture was centrifuged for 30 minutes at 900×g. The IC50 was determined by measuring the fluorescent intensity in the supernatant (Ex=495 nm, and Em=520 nm). The results are shown in Table 24 (Example number 2 and 2(3)).

[2] = target: T1, gelatinase A; experiment: Inhibitory activity against gelatinase A (synthetic substrate MOCAc-Pro-Leu-Gly-Leu-A2 pr(Dnp)-Ala-Arg-NH2); assay type: biochemical; conditions: final 13.5 μM, incubated 20 minutes at 37° C., activated gelatinase A
Procedure: as §1, §2, §3
Alternatively the inhibitory activity of the test compound was measured by using the synthetic substrate (MOCAc-Pro-Leu-Gly-Leu-A2 pr(Dnp)-Ala-Arg-NH2). The substrate solution (890 μl; the final concentration was 13.5 μM) was mixed with various concentrations of the test compound or dimethylsulfoxide ([…]) for 5 minutes at 37° C. The activated gelatinase A (7 μl/tube, 100 μl) was added to the reaction mixture and further incubated for 20 minutes at 37° C. 0.1 M sodium acetate buffer (2 ml; pH4.0) was added into the mixture. The IC50 was determined by measuring the fluorescent intensity (Ex=328 nm, and Em=393 nm) in this solution. The results are shown in Table 24 (Example number 2(4) and 3(2)).

pIC50 [1]	pIC50 [2]	Compound
8.77		Cc1ccc(C(=O)Nc2ccc(S(=O)(=O)NCC(=O)NO)cc2)cc1 [Example 2, N N-Hydroxy-N-[N'-[[4-(p-toluoylamino)phenyl]sulfonyl]glycyl]amide]
	9.64	C[C@@H](NS(=O)(=O)c1ccc(NC(=O)c2cccs2)cc1)C(=O)NO [Example 3(2)]
	9.21	Cc1ccc(C(=O)Nc2ccc(S(=O)(=O)N[C@H](Cc3c[nH]c4ccccc34)C(=O)NO)cc2)cc1 [Example 2(4), N-Hydroxy-N-[N'-[[4-(p-toluoylamino)phenyl]sulfonyl]-D-tryptophyl]amide]
9.00		CCCCCc1ccc(C(=O)Nc2ccc(S(=O)(=O)N[C@H](Cc3ccccc3)C(=O)NO)cc2)cc1 [Example 2(3), N-Hydroxy-N-[N'-[[4-(4-pentylbenzoylamino)phenyl]sulfonyl]-D-phenylalanyl]amide]
